In patent US10596160B2, “Compositions, methods and uses for the treatment of diabetes and related conditions by controlling blood glucose level” (PHARNEXT, priority 2012, dated 2020):

What was measured:
[1] = system: human primary diabetic myotubes; experiment: Glucose uptake in human diabetic myotube primary cultures; assay type: cell-based; details: myotubes from a diabetic patient, 24 h pre-treatment
Description: The myotubes from a diabetic patient were grown on HAM's F10-based media (Sigma, ref. N6908) supplemented with 15% of fetal bovine serum, 1 mM glutamine.
Myoblasts were seeded at 380,000 cells/well in 12-well plates. After 2 days of proliferation, the cells were placed in reduced serum conditions (2% horse serum) to induce differentiation. The myotubes were used after 5 days of differentiation.
Dulbecco's modified Eagle's medium (DMEM)-based media (Gibco, ref. 31053-028) supplemented with 2% heat-inactivated horse serum, 2% Glutamax (Gibco, ref. 35050) and washed for glucose uptake assays. Compounds were dissolved in DMSO to reach the desired final concentration prior to use.
The differentiated myotubes were treated for 24 h with the compositions of the invention before the assay.
Before the initiation of glucose uptake, the cells were deprived of serum and glucose. A deprivation was first performed in DMEM media containing reduced glucose (1 g/L) and no serum. After adding the compounds at the desired concentrations, the cells were incubated at 37° C. during 2 h30. […] A subsequent glucose and serum deprivation was performed in HBS buffer at 37° C. for 2 hours. The cells were treated with a mixture of 2-[^3H]deoxyglucose 10 Ci/mM+2-deoxy-D-glucose at 10 μM for 30 min. […] The cell lysates were transferred into scintillation vials for the measurement of radioactivity with a MicroBeta counter.

[2] = system: TNFα-induced insulin resistant 3T3-L1 differentiated adipocytes; experiment: Glucose uptake in TNFα-induced insulin resistant 3T3-L1 differentiated adipocytes; assay type: cell-based; details: for enhancement of glucose uptake: drug alone, vs non-treated insulin-resistant cells (TNFα); for enhancement of glucose uptake, combination with metformin: ifenprodil 3.3 nM and metformin 100 μM, combined or alone at the same concentrations
Description: 3T3L1 fibroblasts were maintained in DMEM 4.5 g/L glucose supplemented with 5% calf serum donor, 5% newborn calf serum, 100 U/mL penicillin, and 100 μg/mL streptomycin at 37° C. under a 10% CO2 atmosphere. Cells were grown on 24-well plates at a density of 2560 cells/well in 0.5 mL of growth medium (DMEM 4.5 g/L glucose supplemented with 10% FCS, 100 U/mL penicillin, and 100 μg/mL streptomycin). […] Fresh media were replaced after two days.
Glucose uptake was measured by quantification of incorporated radiolabeled glucose, after an incubation step with 2-deoxy-D[1,2^3H] glucose for 5 min. Glucose uptake was arrested by two washing steps in ice-cold PBS 1×, then were solubilized in 0.1N NaOH for 30 min. Cell-associated radioactivity was then counted using a MicroBeta counter after adding 600 μL per well of scintillant (Optiphase SuperMix3).
In parallel, protein quantification was determined by a colorimetric assay derived from the Lowry method. Results are expressed in nmol of glucose incorporated/5 mn/mg of protein and in % of control or basal condition (100%).

[3] = system: beta pancreatic INS-1 cells; experiment: Prevention of beta cells apoptosis (ssDNA apoptosis detection kit); assay type: cell-based; design: concentration or dose not given beside the values; details: 1 h pre-incubation then 24 h in apoptotic conditions, drugs tested alone
Description: The beta pancreatic INS-1 cells have been selected for this study. The cells are cultured in complete medium, RPMI 1640 10 mM glucose supplemented with 1 mM sodium pyruvate, 50 μM 2-mercaptoethanol, 2 mM glutamine, 10 mM HEPES, 100 IU/mL penicillin, 100 μg/mL streptomycin and 10% heat-inactivated fetal calf serum (FCS), as described by Asfari et al. (23). INS-1 cells are plated (4.5×10^4 cells/well) in 96-well poly-ornithine coated plates and cultured at 37° C. in a humidified atmosphere of 95% air/5% CO2. The day after, cells are pre-incubated with the tested molecules for 1 h. Then, after a medium change, cells are cultured for 24 h in a medium containing the tested molecules and 30 mM glucose, 0.05 mM myristic acid, 25 ng/mL INF, 25 ng/mL TNF and 5 ng/mL IL.
The efficacy of compounds to prevent apoptosis is then evaluated by the highly specific apoptosis detection kit from Chemicon (Ref. APT225). This procedure is based on the detection of single-stranded DNA (ssDNA) which is a specific marker of apoptotic cells (24).
Results are expressed in optical density (OD) arbitrary unit and % of reduction of the apoptosis induced by apoptotic condition. Following a Dunnett t-test, all compounds showing a significant decrease in % of apoptotic cells compared to apoptotic control conditions are considered active.

[4] = system: hepatocytes; experiment: Glucose production by hepatic cells; assay type: cell-based, rat; details: long-term, 0.01 μM (10 nM)
Description: Hepatocytes are isolated from 24 h-fasted male Wistar rats (200-250 g body weight) by ex situ liver perfusion in the presence of collagenase. Cell viability is validated by a trypan blue exclusion test. […] After plating, the medium is removed and cells are cultured for 16 h in RPMI medium without glucose (supplemented with the tested drugs for long-term evaluation). The following day, hepatic glucose production is assessed in Krebs-Ringer Bicarbonate HEPES buffer (KRBH; pH 7.4) in the presence of the neoglucogenic substrates (lactate 10 mM and pyruvate 1 mM) and the tested molecules for 4 h (short-term).
Supernatants are collected and glucose concentrations are determined using a glucose oxidase kit (Instrumentation Laboratory 0018250840). In parallel, protein quantification is performed using the colorimetric Lowry method.
Results are expressed in nmol glucose/mg protein and % of control condition (KLP: KRBH containing lactate and pyruvate).

SMILES: CC(C(O)c1ccc(O)cc1)N1CCC(Cc2ccccc2)CC1 (stereo not shown) [ifenprodil]
- enhancement of glucose uptake ([1]; 0.1 μM): improvement
- enhancement of glucose uptake ([1]; 1 μM): improvement
- enhancement of glucose uptake ([2]; 10 nM): improvement
- enhancement of glucose uptake ([2]; 100 nM): improvement
- enhancement of glucose uptake ([2]; 1 μM): +140%
- enhancement of glucose uptake, combination experiment ([2]; drugs combined at a dose as low as 3.3 nM, or used individually, vs TNFα cells, Dunnett's test): No significant effect
- enhancement of glucose uptake, combination with metformin ([2]; vs TNFα cells): No significant effect
- enhancement of glucose uptake, combination with metformin ([2]; vs TNFα cells, listed as Ifenprodil): does not lead to any significant improvement
- Percentage of apoptosis reduction [3]: 54%
- reduction of glucose production [4]: −22%
